Key:
Assay type in all cases: cell-based, human
[1] = tested on: IFN-γ production by RGP-specific TCL; test: IFN-γ detection in culture supernatants by sandwich ELISA; conditions: supernatant at 48 h, UD undetectable, limit of detection 2 pg/ml
Experimental: (§1) Cytokine Detection in Culture Supernatants
(§2) Supernatants of triplicate cultures were harvested and pooled from T cell proliferation assay cultures at 48 hours for the detection of IL-5 and IFN-γ production by sandwich ELISA. Briefly white Maxisorp (NUNC, Roskilde, Denmark) ELISA plates were coated with capture mAb (anti-IL-5, Pharmingen, San Diego, Calif., USA; anti-IFN-γ, Endogen, Woburn, Mass. USA) overnight at 4° C. Plates were then washed and wells blocked with 1% Bovine Serum Albumin/PBS for 1 hour at room temperature. Following washing, test samples (neat) and serial dilutions of recombinant human IL-5 (Pharmingen, USA) or IFN-γ (Endogen, USA) (for the construction of standard curves) were added and incubated overnight at 4° C. Following washing, plates were incubated with biotinylated detecting mAb (anti-IL-5, Pharmingen, USA; […], Endogen, USA) for 1 hour at room temperature. Plates were then washed and incubated with streptavidin-peroxidase (Amersham, Piscataway, N.J., USA) for 30 minutes at room temperature. Following washing, a chemiluminescent substrate (Du Pont, Wilmington, Del., USA) was added to each well and plates read in a Lumicount microplate Glow Luminometer (Packard Instrument Company, Meriden, Conn., USA), 0.5 seconds/well, automatic sensitivity setting. Standard curve construction and determination of test sample cytokine levels were performed using Packard I-smart software. The limits of detection for IL-5 and IFN-γ were 10 pg/ml and 2 pg/ml respectively.

[2] = tested on: IL-5 production by RGP-specific TCL; test: IL-5 detection in culture supernatants by sandwich ELISA; conditions: supernatant at 48 h, UD undetectable, limit of detection 10 pg/ml
Experimental: as §1, §2

[3] = tested on: RGP-specific TCL; test: TCL proliferation assay (3H-thymidine incorporation, stimulation index); conditions: for Proliferative response, stimulation index: peptides 10 μg/ml
Method in brief: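 Short-term TCL raised from PBMC with 25 or 50 μg/ml RGP extract plus irradiated autologous APC and IL-2, rested 6–7 days. 5×10^4 T cells stimulated 3 days with allergen and irradiated autologous PBMC, 16 h ^3H-thymidine pulse; SI = antigen cpm/unstimulated cpm, positive if ≧2.5, highest-proliferation concentration reported.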

[4] = Subject 15 TCL, Lol p 1 peptides
[5] = Subject 19 TCL, Lol p 1 peptides
[6] = Subject 4 TCL, Lol p 1 series (Table 3), RGP and Lol p 1 maximal response
[7] = Subject 19 TCL, Lol p 1 series (Table 3), RGP and Lol p 1 maximal response
[8] = Subject 38 TCL, Lol p 5 peptides

LDAKSTWYGKPTGAGPKDNG (Lolium perenne) [Lol p 1 peptide 19-38]
IFN-γ, proliferation inducing peptides ([1]; Subject 3 TCL, Lol p 1 peptides): 20.9 pg/mL | IFN-γ, proliferation inducing peptides [1, 4]: 204.1 pg/mL | IFN-γ, proliferation inducing peptides [1, 5]: 2.8 pg/mL | IL-5, proliferation inducing peptides [2, 4]: 182.7 pg/mL | responder frequency among Lol p 1 peptide-responsive donors ([3]; Lol p 1 peptide-responsive RGP-specific TCL, SI ≥2.5 positive, listed as Lol p 1 (19-3 8)): 46% | Proliferative response, stimulation index ([3]; Subject 2 TCL, Lol p 1 series (Table 3), RGP and Lol p 1 maximal response): 5.2 | Proliferative response, stimulation index ([3]; Subject 3 TCL, Lol p 1 series (Table 3), RGP and Lol p 1 maximal response): 3.3 | Proliferative response, stimulation index [3, 6]: 12.3 | Proliferative response, stimulation index ([3]; Subject 6 TCL, Lol p 1 series (Table 3), RGP and Lol p 1 maximal response): 2.7 | Proliferative response, stimulation index ([3]; Subject 7 TCL, Lol p 1 series (Table 3), RGP and Lol p 1 maximal response): 3.2 | Proliferative response, stimulation index ([3]; Subject 8 TCL, Lol p 1 series (Table 3), RGP and Lol p 1 maximal response): 3.8 | Proliferative response, stimulation index ([3]; Subject 12 TCL, Lol p 1 series (Table 3), RGP and Lol p 1 maximal response): 7.5 | Proliferative response, stimulation index ([3]; Subject 15 TCL, Lol p 1 series (Table 3), RGP and Lol p 1 maximal response): 10.5 | Proliferative response, stimulation index ([3]; Subject 17 TCL, Lol p 1 series (Table 3), RGP and Lol p 1 maximal response): 5.3 | Proliferative response, stimulation index [3, 7]: 10.3 | Proliferative response, stimulation index ([3]; Subject 21 TCL, Lol p 1 series (Table 3), RGP and Lol p 1 maximal response): 3.8

ADKFKIFEAAFSESSKGLLA (Lolium perenne) [Lol p 5 peptide 55-74]
IFN-γ, proliferation inducing peptides [1, 8]: 54.2 pg/mL | IL-5, proliferation inducing peptides [2, 8]: 220.7 pg/mL | Proliferative response, stimulation index ([3]; Subject 36 TCL, Lol p 5 series (Table 4), RGP and Lol p 5 maximal response): 3.3 | Proliferative response, stimulation index ([3]; Subject 38 TCL, Lol p 5 series (Table 4), RGP and Lol p 5 maximal response, * SDS-PAGE purified Lol p 5): 3.3

KESWGAVWRIDTPDKLTGPF (Lolium perenne) [Lol p 1 peptide 190-209]
IFN-γ, proliferation inducing peptides ([1]; Subject 10 TCL, Lol p 1 peptides): 9.0 pg/mL | IFN-γ, proliferation inducing peptides [1, 4]: 63.5 pg/mL | IFN-γ, proliferation inducing peptides ([1]; Subject 23 TCL, Lol p 1 peptides): 8.3 pg/mL | IL-5, proliferation inducing peptides [2, 4]: 15.3 pg/mL | IL-5, proliferation inducing peptides [2, 5]: 14.7 pg/mL | Proliferative response, stimulation index [3, 6]: 6.2 | Proliferative response, stimulation index ([3]; Subject 10 TCL, Lol p 1 series (Table 3), RGP and Lol p 1 maximal response): 3.7 | Proliferative response, stimulation index ([3]; Subject 11 TCL, Lol p 1 series (Table 3), RGP and Lol p 1 maximal response): 3.3 | Proliferative response, stimulation index ([3]; Subject 14 TCL, Lol p 1 series (Table 3), RGP and Lol p 1 maximal response): 5.7 | Proliferative response, stimulation index ([3]; Subject 18 TCL, Lol p 1 series (Table 3), RGP and Lol p 1 maximal response): 5.4 | Proliferative response, stimulation index [3, 7]: 3.0 | Proliferative response, stimulation index ([3]; Subject 22 TCL, Lol p 1 series (Table 3), RGP and Lol p 1 maximal response): 5.7 | Proliferative response, stimulation index ([3]; Subject 23 TCL, Lol p 1 series (Table 3), RGP and Lol p 1 maximal response): 5.2

— US20060084789A1, “Immunotherapeutic and immunoprphylactic reagents” (priority 2002, published 2006)
